Read-outs that look alike come from different tables or passages of the source.

Among the data in patent publication US9802941B2, “Compounds and methods for inhibiting histone demethylases” (Gilead Sciences, Inc., priority 2014, dated 2017) are IC50 values, retold here.

Format in all cases: biochemical
The target in one experiment is T1, KDM4C (JMJD2C) (Homo sapiens, UniProt Q9H3R0).
T1 construct: KDM4C; BRIC, Denmark; 1-349; E. coli; host or cells: E. coli
T1 sequence (Q9H3R0 1-349): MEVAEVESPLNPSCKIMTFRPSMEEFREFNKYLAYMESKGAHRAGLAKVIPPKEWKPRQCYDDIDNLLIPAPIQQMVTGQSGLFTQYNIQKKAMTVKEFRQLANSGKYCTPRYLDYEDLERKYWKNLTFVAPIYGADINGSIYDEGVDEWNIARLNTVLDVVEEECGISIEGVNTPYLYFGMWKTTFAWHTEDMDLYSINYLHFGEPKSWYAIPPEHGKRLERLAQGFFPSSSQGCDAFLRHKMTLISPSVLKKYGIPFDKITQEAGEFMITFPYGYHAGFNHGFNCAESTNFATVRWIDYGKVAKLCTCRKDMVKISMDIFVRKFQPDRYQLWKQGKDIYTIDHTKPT
Briefly: Histone lysine demethylase AlphaLISA assay, KDM4C. The method, then:
(§1) The compounds of the application, or a pharmaceutically acceptable salt, or solvate, or prodrug thereof, are tested in an in vitro AlphaLISA assay. Enzymes are dissolved in enzyme buffer and incubated before they are added to DMSO solutions of compounds of the application, or a pharmaceutically acceptable salt, or solvate, or prodrug thereof, in enzyme buffer. The reaction mixture is then incubated for an additional period of time before substrate solution is added and then the resulting mixture again incubated. Acceptor beads and suspended Epigenetic Buffer from stock are added and the suspension is again incubated before a suspension of streptavidin donor beads in Epigenetic Buffer is added. After an additional period of incubation, the plates are read.
(§2) The ability of compounds of the application to inhibit the histone lysine demethylase activity in vitro of different enzymes was determined.
(§3) The reaction mixture was incubated for another 10 minutes before 5 μL of substrate solution was added and the resulting mixture was then incubated at room temperature. […] After incubation at room temperature in the dark, the plates were read.
(§4) Enzyme Buffer: 50 mM Hepes (pH 7.4-8.0), 0.003-0.01% Tween-20, 0.1% BSA; 5 μM (NH4)2Fe(SO4)2.

In another experiment the target is T2, KDM2B (FBXL10) (Homo sapiens, UniProt Q8NHM5).
T2 construct: KDM2B; BPS,; 1-650; Bac; purchased BPS Bioscience, US; host or cells: baculovirus system
T2 sequence (Q8NHM5 1-650): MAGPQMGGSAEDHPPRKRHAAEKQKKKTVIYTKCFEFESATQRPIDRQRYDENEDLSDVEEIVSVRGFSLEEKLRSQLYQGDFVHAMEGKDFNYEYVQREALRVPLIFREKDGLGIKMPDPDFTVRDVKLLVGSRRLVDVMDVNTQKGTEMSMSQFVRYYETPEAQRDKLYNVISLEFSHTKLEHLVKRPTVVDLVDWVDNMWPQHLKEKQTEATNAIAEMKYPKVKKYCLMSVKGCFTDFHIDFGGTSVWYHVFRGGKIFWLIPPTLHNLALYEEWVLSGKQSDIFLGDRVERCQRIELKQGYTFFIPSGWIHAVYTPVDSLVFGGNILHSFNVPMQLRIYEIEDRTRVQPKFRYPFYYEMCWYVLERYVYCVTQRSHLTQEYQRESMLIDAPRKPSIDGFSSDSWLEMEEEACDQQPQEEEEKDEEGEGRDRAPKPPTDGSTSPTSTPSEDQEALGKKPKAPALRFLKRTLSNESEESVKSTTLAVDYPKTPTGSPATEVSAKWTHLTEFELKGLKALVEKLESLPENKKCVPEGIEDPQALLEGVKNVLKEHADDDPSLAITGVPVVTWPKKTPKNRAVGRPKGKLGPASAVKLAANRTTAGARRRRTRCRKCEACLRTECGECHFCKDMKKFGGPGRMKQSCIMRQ
Briefly: Histone lysine demethylase AlphaLISA assay, KDM2B. The method, then:
as §1, §2, §3, §4
In general terms: In Alpha technology, singlet oxygen from a donor bead excites a nearby acceptor bead.

The next experiment deals with T3, PHF8 (KDM7) (Homo sapiens, UniProt Q9UPP1).
T3 construct: KDM7 (PHF8); BRIC; 1-1322; Bac
T3 sequence (Q9UPP1 37-440 limits assumed): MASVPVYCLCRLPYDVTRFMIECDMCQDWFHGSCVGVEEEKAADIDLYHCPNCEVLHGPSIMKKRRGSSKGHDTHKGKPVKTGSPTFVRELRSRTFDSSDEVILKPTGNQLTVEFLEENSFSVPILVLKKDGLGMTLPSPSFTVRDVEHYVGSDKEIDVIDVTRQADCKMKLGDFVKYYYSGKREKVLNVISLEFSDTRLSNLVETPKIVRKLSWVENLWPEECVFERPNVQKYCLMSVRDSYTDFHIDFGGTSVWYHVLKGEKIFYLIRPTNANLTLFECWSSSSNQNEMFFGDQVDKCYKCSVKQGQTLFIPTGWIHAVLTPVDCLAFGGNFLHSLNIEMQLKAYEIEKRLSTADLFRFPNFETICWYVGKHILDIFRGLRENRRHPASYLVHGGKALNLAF
Briefly: Histone lysine demethylase AlphaLISA assay, PHF8. The procedure: as §1, §2, §3, §4

Another experiment concerns the target T4, KDM5B (PLU-1) (Homo sapiens, UniProt Q9UGL1).
T4 construct: BRIC; 1-809; E. coli; host or cells: E. coli
T4 sequence (Q9UGL1 1-809): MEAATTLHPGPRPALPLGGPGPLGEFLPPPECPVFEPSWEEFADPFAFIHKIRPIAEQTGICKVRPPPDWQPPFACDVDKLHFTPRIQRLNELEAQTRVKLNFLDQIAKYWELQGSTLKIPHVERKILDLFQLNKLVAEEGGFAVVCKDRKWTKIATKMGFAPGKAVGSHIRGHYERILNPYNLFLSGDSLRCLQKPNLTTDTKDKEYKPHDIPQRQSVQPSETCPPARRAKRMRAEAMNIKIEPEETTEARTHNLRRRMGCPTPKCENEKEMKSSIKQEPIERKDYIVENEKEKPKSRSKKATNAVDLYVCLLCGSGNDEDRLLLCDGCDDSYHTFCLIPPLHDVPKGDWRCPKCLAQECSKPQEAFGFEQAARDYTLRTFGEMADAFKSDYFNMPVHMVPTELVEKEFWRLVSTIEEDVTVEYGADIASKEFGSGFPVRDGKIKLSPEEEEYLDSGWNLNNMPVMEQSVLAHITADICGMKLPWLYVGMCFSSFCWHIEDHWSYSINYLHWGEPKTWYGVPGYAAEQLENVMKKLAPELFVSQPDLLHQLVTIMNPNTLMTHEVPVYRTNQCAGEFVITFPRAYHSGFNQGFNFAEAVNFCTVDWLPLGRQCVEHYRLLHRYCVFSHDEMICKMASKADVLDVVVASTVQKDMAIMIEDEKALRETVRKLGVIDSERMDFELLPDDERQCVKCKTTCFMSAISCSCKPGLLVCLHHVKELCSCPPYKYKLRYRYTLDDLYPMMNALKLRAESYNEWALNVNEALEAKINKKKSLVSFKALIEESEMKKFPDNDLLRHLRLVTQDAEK
Briefly: Histone lysine demethylase AlphaLISA assay, KDM5B. The procedure: as §1, §2, §3, §4

Where [1] appears, read: AlphaLISA assay, read-out: HDME Inhibition KDM4C (IC50).
[2] abbreviates: AlphaLISA, in vitro, read-out: HDME Inhibition KDM4C.
Where [3] appears, read: AlphaLISA, in vitro, read-out: HDME Inhibition KDM2B.
[4] abbreviates: AlphaLISA, in vitro, read-out: HDME Inhibition PHF8.
Setting [5] is: AlphaLISA assay, read-out: HDME Inhibition KDM5B (IC50).
[6] abbreviates: AlphaLISA, in vitro, read-out: HDME Inhibition KDM5B.
[7] abbreviates: AlphaLISA assay, read-out: HDME Inhibition PHF8 (IC50).
Where [8] appears, read: AlphaLISA assay, read-out: HDME Inhibition KDM2B (IC50).

In the case of `O=C(O)c1cc(CO)nc(CNCc2nnc(-c3cccs3)n2CCCc2ccccc2)c1` [Compound 95, 2-(hydroxymethyl)-6-[({[4-(3-phenylpropyl)-5-(thiophen-2-yl)-4H-1,2,4-triazol-3-yl]methyl}amino}methyl]pyridine-4-carboxylic acid], the IC50 was over 10 µM on KDM4C (JMJD2C) (setting [1]); over 10 µM on KDM4C (JMJD2C) (setting [2]); 0.389 µM on KDM2B (FBXL10) (setting [3]); 9.65 µM at PHF8 (KDM7) (setting [4]); over 10 µM on KDM5B (PLU-1) (setting [5]); over 10 µM on KDM5B (PLU-1) (setting [6]).
Turning to `O=C(O)c1cc(CO)nc(CNCCc2nncn2Cc2ccc(C(F)(F)F)cc2)c1` [Compound 66, 2-(hydroxymethyl)-6-({[2-(4-{[4-(trifluoromethyl)phenyl]methyl}-4H-1,2,4-triazol-3-yl)ethyl]amino}methyl)pyridine-4-carboxylic acid], the IC50 on KDM4C (JMJD2C) (setting [1]) was over 10 µM; on KDM4C (JMJD2C) (setting [2]), over 10 µM; on KDM2B (FBXL10) (setting [3]), 5.77 µM; at PHF8 (KDM7) (setting [7]), over 10 µM; at PHF8 (KDM7) (setting [4]), over 10 µM; at KDM5B (PLU-1) (setting [6]), 0.943 µM.
For `O=C(O)c1cc(CO)nc(CNCc2nnc(-c3ccccc3)n2CCCc2ccccc2)c1` [Compound 99, 2-(hydroxymethyl)-6-[({[5-phenyl-4-(3-phenylpropyl)-4H-1,2,4-triazol-3-yl]methyl}amino)methyl]pyridine-4-carboxylic acid], the IC50 at KDM4C (JMJD2C) (setting [1]), at KDM4C (JMJD2C) (setting [2]), on KDM2B (FBXL10) (setting [8]), on KDM2B (FBXL10) (setting [3]), on PHF8 (KDM7) (setting [7]) and at PHF8 (KDM7) (setting [4]) was over 10 µM each time. On KDM5B (PLU-1), this compound showed an IC50 of 8.41 µM.
For the compound `CCc1nnc(CNCc2cc(C(=O)O)cc(C)n2)n1Cc1cccc(C(C)O)c1` (stereo not shown) [Compound 86, 2-({[(5-ethyl-4-{[3-(1-hydroxyethyl)phenyl]methyl}-4H-1,2,4-triazol-3-yl)methyl]amino}methyl)-6-methylpyridine-4-carboxylic acid], the IC50 on KDM4C (JMJD2C) (setting [1]), on KDM4C (JMJD2C) (setting [2]), on KDM2B (FBXL10) (setting [8]), on KDM2B (FBXL10) (setting [3]), at PHF8 (KDM7) (setting [7]) and at PHF8 (KDM7) (setting [4]) was over 10 µM each time. In addition, the IC50 at KDM5B (PLU-1) (setting [5]) and at KDM5B (PLU-1) (setting [6]) was over 10 µM in each case.
For `Cc1cc(C(=O)O)cc(CNCc2nnc(CN(C)C)n2Cc2ccc(F)cc2)n1` [Compound 44, 2-{[({5-[(dimethylamino)methyl]-4-[(4-fluorophenyl)methyl]-4H-1,2,4-triazol-3-yl}methyl)amino]methyl}-6-methylpyridine-4-carboxylic acid], the IC50 at KDM4C (JMJD2C) (setting [1]) was over 10 µM; at KDM4C (JMJD2C) (setting [2]), over 10 µM; on KDM2B (FBXL10) (setting [3]) it was 2.01 µM; at PHF8 (KDM7) (setting [4]), 2.38 µM; on KDM5B (PLU-1) (setting [5]) it was over 10 µM; at KDM5B (PLU-1) (setting [6]), over 10 µM.
Regarding `C=C(C)c1cnc(CNCc2cc(C(=O)O)cc(C)n2)n1Cc1ccc(F)cc1` [Compound 103, 2-{[({1-[(4-fluorophenyl)methyl]-5-(prop-1-en-2-yl)-1H-imidazol-2-yl}methyl)amino]methyl}-6-methylpyridine-4-carboxylic acid], the IC50 was over 10 µM on KDM4C (JMJD2C) (setting [1]); over 10 µM at KDM4C (JMJD2C) (setting [2]); 0.056 µM on KDM2B (FBXL10) (setting [3]); 0.16 µM at PHF8 (KDM7) (setting [4]); over 10 µM at KDM5B (PLU-1) (setting [5]); over 10 µM on KDM5B (PLU-1) (setting [6]).
Regarding `CCOc1ccc(CC(C)C)c(CNCc2cc(C(=O)O)cc(CO)n2)n1` [Compound 101, 2-[({[6-ethoxy-3-(2-methylpropyl)pyridin-2-yl]methyl}amino)methyl]-6-(hydroxymethyl)pyridine-4-carboxylic acid], the IC50 at KDM4C (JMJD2C) (setting [1]) was over 10 µM; at KDM4C (JMJD2C) (setting [2]), over 10 µM; on KDM2B (FBXL10) (setting [3]), 0.105 µM; on PHF8 (KDM7) (setting [4]), 1.33 µM; at KDM5B (PLU-1) (setting [6]), 6.11 µM.
In the case of `Cc1cc(C(=O)O)cc(CNCc2nnc(C(C)(C)C)n2Cc2ccc(F)cc2)n1` [Compound 49, 2-{[({5-tert-butyl-4-[(4-fluorophenyl)methyl]-4H-1,2,4-triazol-3-yl}methyl)amino]methyl}-6-methylpyridine-4-carboxylic acid], the IC50 is over 10 µM on KDM4C (JMJD2C) (setting [1]); over 10 µM on KDM4C (JMJD2C) (setting [2]); 0.838 µM on KDM2B (FBXL10) (setting [3]); 1.11 µM on PHF8 (KDM7) (setting [4]); over 10 µM at KDM5B (PLU-1) (setting [5]); over 10 µM at KDM5B (PLU-1) (setting [6]).
As for `Cc1nnc(CNCc2cc(C(=O)O)cc(CO)n2)n1CCCc1ccccc1` [Compound 65, 2-(hydroxymethyl)-6-[({[5-methyl-4-(3-phenylpropyl)-4H-1,2,4-triazol-3-yl]methyl}amino)methyl]pyridine-4-carboxylic acid], the IC50 on KDM4C (JMJD2C) (setting [1]) is over 10 µM; at KDM4C (JMJD2C) (setting [2]), over 10 µM; on KDM2B (FBXL10) (setting [3]) it was 0.034 µM; on PHF8 (KDM7) (setting [4]) it was 1.01 µM; against KDM5B (PLU-1), 0.151 µM.
In the case of `Cc1cc(C(=O)O)cc(CNCc2ncc(CCC(N)=O)n2Cc2ccc(F)cc2)n1` [Compound 114, 2-[({[5-(2-carbamoylethyl)-1-[(4-fluorophenyl)methyl]-1H-imidazol-2-yl]methyl}amino)methyl]-6-methylpyridine-4-carboxylic acid], the IC50 at KDM4C (JMJD2C) (setting [1]) was over 10 µM; on KDM4C (JMJD2C) (setting [2]), over 10 µM; at KDM2B (FBXL10) (setting [3]) it was 0.317 µM; on PHF8 (KDM7) (setting [4]), 1.14 µM; at KDM5B (PLU-1) (setting [5]), over 10 µM; at KDM5B (PLU-1) (setting [6]), over 10 µM.
For `Cc1cc(C(=O)O)cc(CNCc2nnc(C)n2Cc2ccc(Cl)c(Cl)c2)n1` [Compound 57, 2-{[({4-[(3,4-dichlorophenyl)methyl]-5-methyl-4H-1,2,4-triazol-3-yl}methyl)amino]methyl}-6-methylpyridine-4-carboxylic acid], the IC50 is over 10 µM on KDM4C (JMJD2C) (setting [1]); over 10 µM at KDM4C (JMJD2C) (setting [2]); 1.14 µM at KDM2B (FBXL10) (setting [3]); 1.27 µM on PHF8 (KDM7) (setting [4]); over 10 µM on KDM5B (PLU-1) (setting [5]); over 10 µM at KDM5B (PLU-1) (setting [6]).
